Source: ChEMBL document CHEMBL3046361, “Coumarin: a potential nucleus for anti-inflammatory molecules” (Med Chem Res, 2013)
pIC50: −log10 of the molar value. One block for each molecule: values may come before it.

Key:
[1] = tested on: Rattus norvegicus; experiment: Anti-inflammatory activity in albino Rattus norvegicus (rat) assessed as inhibition of carrageenan-induced paw edema at 100 mg/kg, po administered 30 min prior to carrageenan-challenge measured after 5 hr relative to control; format: functional
[2] = tested on: Rattus norvegicus; experiment: Anti-inflammatory activity in Rattus norvegicus (rat) assessed as inhibition of carrageenan-induced paw edema relative to control; format: functional
[3] = tested on: Rattus norvegicus; experiment: Anti-inflammatory activity in Rattus norvegicus (rat) assessed as inhibition of carrageenan-induced paw edema at […] relative to control; format: functional
[4] = molecular target: T1, Seed linoleate 13S-lipoxygenase-1 (Glycine max) (UniProt P08170); experiment: Inhibition of Glycine max (soybean) lipooxygenase
T1 sequence (whole entry): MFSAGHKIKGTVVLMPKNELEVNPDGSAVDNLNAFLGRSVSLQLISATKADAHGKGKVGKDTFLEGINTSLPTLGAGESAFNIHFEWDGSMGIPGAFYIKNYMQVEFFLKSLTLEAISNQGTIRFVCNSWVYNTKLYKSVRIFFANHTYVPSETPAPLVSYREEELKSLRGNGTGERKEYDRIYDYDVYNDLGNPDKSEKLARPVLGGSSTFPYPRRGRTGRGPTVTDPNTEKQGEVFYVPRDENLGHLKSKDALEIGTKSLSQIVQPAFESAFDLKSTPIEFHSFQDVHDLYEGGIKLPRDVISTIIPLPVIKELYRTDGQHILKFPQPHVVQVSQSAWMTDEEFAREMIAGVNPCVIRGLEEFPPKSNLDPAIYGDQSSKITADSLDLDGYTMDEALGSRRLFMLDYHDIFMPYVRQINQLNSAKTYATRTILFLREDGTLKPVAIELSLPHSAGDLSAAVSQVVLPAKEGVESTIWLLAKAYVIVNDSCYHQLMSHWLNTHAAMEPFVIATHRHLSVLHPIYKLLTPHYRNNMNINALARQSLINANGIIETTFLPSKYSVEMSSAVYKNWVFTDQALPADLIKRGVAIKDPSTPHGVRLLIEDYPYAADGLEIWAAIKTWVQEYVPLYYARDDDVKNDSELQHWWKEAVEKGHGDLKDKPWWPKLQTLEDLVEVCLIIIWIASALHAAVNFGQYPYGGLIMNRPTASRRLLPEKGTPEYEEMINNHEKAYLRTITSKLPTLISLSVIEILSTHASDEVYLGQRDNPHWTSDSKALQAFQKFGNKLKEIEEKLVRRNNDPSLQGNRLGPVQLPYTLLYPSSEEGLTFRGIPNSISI

[5] = tested on: Rattus norvegicus; experiment: Anti-inflammatory activity in albino Rattus norvegicus (rat) assessed as inhibition of carrageenan-induced paw edema at 10 mg/kg, po administered 1 hr prior to carrageenan-challenge measured after 3 hr relative to control; format: functional
[6] = tested on: Rattus norvegicus; experiment: Anti-inflammatory activity in albino Rattus norvegicus (rat) assessed as inhibition of carrageenan-induced paw edema at 10 mg/kg, po administered 30 min prior to carrageenan-challenge measured after 5 hr relative to control; format: functional
[7] = tested on: Rattus norvegicus; experiment: Anti-inflammatory activity in Rattus norvegicus (rat) assessed as inhibition of carrageenan-induced paw edema at 100 mg/kg, po relative to control; format: functional
[8] = tested on: Rattus norvegicus; experiment: Anti-inflammatory activity in Rattus norvegicus (rat) assessed as inhibition of carrageenan-induced paw edema at 0.1 mmoles/kg relative to control; format: functional; conditions: read-out: INH
[9] = molecular target: Prostaglandin G/H synthase 1 (Homo sapiens) (UniProt P23219); experiment: Inhibition of COX1 (unknown origin); conditions: concentration not given here
Sequence of Prostaglandin G/H synthase 1 (Homo sapiens) (P23219 whole entry): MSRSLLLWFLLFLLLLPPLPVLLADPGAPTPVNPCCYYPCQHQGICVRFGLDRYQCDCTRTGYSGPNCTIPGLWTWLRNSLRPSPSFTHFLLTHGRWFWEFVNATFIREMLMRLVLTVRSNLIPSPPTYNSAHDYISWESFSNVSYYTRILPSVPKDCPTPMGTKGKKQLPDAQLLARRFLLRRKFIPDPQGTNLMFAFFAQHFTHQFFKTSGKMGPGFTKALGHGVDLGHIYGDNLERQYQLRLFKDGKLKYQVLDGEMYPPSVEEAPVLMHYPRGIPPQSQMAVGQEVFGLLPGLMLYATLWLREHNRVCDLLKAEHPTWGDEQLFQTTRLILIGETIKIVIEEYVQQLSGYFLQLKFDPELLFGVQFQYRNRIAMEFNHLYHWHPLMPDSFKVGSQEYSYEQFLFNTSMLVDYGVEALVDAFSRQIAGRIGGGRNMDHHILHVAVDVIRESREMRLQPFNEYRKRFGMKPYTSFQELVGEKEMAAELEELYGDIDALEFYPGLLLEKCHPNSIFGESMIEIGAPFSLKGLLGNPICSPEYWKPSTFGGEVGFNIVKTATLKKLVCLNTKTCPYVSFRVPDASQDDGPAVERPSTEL

[10] = tested on: PBMC; experiment: Anti-inflammatory activity in Homo sapiens (human) PBMC assessed as inhibition of LPS-induced TNFalpha production; format: functional, cell-based

SMILES: CC(=O)N1N=C(c2cc3cc(Br)ccc3oc2=O)CC1c1ccc([N+](=O)[O-])cc1 (stereo unspecified)
inhibition in vivo at 100 mg/kg [1]: 66.5%

SMILES: CN(C)N/C(=N/O)c1cc(=O)oc2ccccc12
inhibition (INH) [2]: >80%

SMILES: COc1ccc(-c2cc(-c3c(OC)ccc4c(C)cc(=O)oc34)no2)cc1
inhibition (INH) [3]: 72%

inhibition [4]: 76%
SMILES: COC(=O)/N=C(/N)c1cc(=O)oc2ccccc12

SMILES: COc1ccc2c(c1)c(CC(=O)O)c(C)n2C(=O)c1ccc(Cl)cc1 [INDOMETHACIN]
inhibition in vivo at 10 mg/kg [5]: 56.5%
inhibition in vivo at 10 mg/kg [6]: 71%

SMILES: COc1ccc2c(C)cc(=O)oc2c1-c1cc(-c2ccc(Cl)cc2)on1
inhibition (INH) [3]: 68%

SMILES: O=c1oc2ccccc2cc1/N=C/c1ccc(Cl)c(Cl)c1
inhibition in vivo at 100 mg/kg [7]: 60%

inhibition [4]: 100%
SMILES: CCOC(=O)c1cc(=O)oc2c3c(c4ccccc4c12)OC(C)(C)[C@@H](O)[C@H]3OC(=O)c1cccc(Cl)c1
inhibition in vivo at 100 µmol/kg [8]: 59%

SMILES: COc1ccc2c(C3=NOSN3c3ccccc3)cc(=O)oc2c1
inhibition in vivo at 10 mg/kg [5]: 55.3%

SMILES: CCCC(=O)N/N=C/c1coc2ccccc2c1=O
inhibition (INH) [2]: 80.78%

SMILES: CO/N=C/c1ccc2ccc(=O)oc2c1
inhibition (INH) [2]: 54%

inhibition [9]: 39%
SMILES: Cc1c/c(=N\c2ccc([N+](=O)[O-])cc2)oc2cc(O)ccc12

SMILES: O=C(O)c1ccccc1NC(=O)c1cc2cc(Cl)ccc2oc1=O
inhibition (INH) [2]: 54%

SMILES: N/C(=N/C(=O)Oc1ccccc1)c1cc(=O)oc2ccccc12
inhibition (INH) [2]: >80%

SMILES: CCNC(=O)Nc1ccc(-c2cc3ccc(OC(=O)N(CC)CC)cc3oc2=O)cc1
pIC50 [10]: 6.49

SMILES: CN/N=C/c1ccc2ccc(=O)oc2c1
inhibition (INH) [2]: 54%

inhibition [4]: 100%
SMILES: CCOC(=O)c1cc(=O)oc2c3c(c4ccccc4c12)OC(C)(C)[C@@H](O)[C@H]3O
inhibition in vivo at 100 µmol/kg [8]: 59%

inhibition [4]: 77%
SMILES: CC1=NC(c2cc(=O)oc3ccccc23)NO1 (stereo unspecified)

SMILES: CCN(CC)C(=O)Oc1ccc2c(C)c(Cc3ccc(F)cc3)c(=O)oc2c1
pIC50 [10]: 5.62

SMILES: CN(C)C(=O)Oc1cc2oc(=O)c(-c3cccnc3)cc2cc1Cl
pIC50 [10]: 6.35

inhibition [9]: 78.6%
SMILES: O=c1ccc2ccc(/C=N/O)cc2o1

inhibition [4]: 92.4%
SMILES: Cc1cc(=O)oc2cc(NCCN(CCN)CCN)ccc12

SMILES: O=c1oc2ccccc2cc1/N=C/c1ccc(Cl)cc1
inhibition in vivo at 100 mg/kg [7]: 75%
